Patent US20040132807A1, “Aurones as telomerase inhibitors” (priority 2001, published 2004)

Biological target: T1, telomerase enzyme (Homo sapiens, UniProt O14746)
T1 construct: telomerase enzyme diluted in a buffer
Test: Flash Plate-based telomerase activity assay
Type: biochemical
Conditions: two hours incubation at 37°, biotinylated oligo primer, radiolabeled probe, streptavidin flash plate; read-out: IC50 (telomerase inhibitory activity)
Experimental: The telomerase activity of the compounds has been evaluated using a Flash Plate-based assay.
The assay mixture is constituted of:
telomerase enzyme diluted in a buffer, the composition of which has been selected to maintain the enzyme activity stable along the duration of the assay.
dNTPs, deoxynucleotides 5′-triphosphate.
biotinylated oligo as primer.
increasing concentrations of test compounds/positive control.
After two hours of incubation at 37° degrees the telomeric repeats added by telomerase are evaluated by hybridization in solution with a 3′-radioactive labeled short oligonucleotide probe. The extent of hybridization is then quantitated by transferring the reaction mixture in a streptavidin-coated flash plate, where the binding between biotin and streptavidin occurs. The telomerase activity is proportional to the radioactivity measured and the inhibitory activity of the compounds is evaluated as IC50 using the Sigma Plot fit program.
The IC50 values for the compounds of the present invention were determined according to the above-described method.

T1 sequence (O14746 whole entry): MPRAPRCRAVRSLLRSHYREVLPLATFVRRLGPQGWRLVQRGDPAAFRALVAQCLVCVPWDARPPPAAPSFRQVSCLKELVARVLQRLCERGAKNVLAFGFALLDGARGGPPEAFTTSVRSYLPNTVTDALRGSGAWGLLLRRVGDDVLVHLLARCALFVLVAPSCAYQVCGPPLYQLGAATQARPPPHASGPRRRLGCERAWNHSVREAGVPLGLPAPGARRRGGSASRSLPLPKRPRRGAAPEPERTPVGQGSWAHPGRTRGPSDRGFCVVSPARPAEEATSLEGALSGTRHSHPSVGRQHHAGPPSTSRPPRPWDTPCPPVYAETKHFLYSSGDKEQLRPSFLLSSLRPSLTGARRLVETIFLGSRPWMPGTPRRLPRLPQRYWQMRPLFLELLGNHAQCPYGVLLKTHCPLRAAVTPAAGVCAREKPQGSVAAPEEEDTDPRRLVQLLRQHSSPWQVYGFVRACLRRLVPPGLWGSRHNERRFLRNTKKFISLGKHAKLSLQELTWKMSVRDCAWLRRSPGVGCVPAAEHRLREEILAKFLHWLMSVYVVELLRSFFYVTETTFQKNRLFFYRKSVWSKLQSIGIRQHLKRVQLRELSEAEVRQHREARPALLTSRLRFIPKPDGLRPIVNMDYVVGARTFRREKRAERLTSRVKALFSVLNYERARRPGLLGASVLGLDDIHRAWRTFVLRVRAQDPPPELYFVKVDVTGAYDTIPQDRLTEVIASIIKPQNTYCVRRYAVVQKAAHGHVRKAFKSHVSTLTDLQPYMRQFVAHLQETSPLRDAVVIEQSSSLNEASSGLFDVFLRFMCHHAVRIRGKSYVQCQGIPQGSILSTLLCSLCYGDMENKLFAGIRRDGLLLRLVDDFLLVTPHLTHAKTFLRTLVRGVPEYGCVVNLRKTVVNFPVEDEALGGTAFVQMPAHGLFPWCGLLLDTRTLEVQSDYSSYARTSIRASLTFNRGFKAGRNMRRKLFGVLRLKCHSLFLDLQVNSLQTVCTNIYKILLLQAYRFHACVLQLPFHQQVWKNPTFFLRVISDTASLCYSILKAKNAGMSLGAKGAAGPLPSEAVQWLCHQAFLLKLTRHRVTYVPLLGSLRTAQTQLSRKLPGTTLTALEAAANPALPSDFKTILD

Row | SMILES | IC50
1 | O=C1C(=Cc2ccc(O)c(O)c2)Oc2c1ccc(O)c2O [Compound 1, 2-(3,4-dihydroxybenzylidene)-6,7-dihydroxy-1-benzofuran-3(2H)-one] | 0.3 µM
2 | O=C1C(=Cc2ccc3c(c2)OCO3)Oc2c1ccc(O)c2O [Compound 2, 2-(1,3-benzodioxol-5-ylmethylene)-6,7-dihydroxy-1-benzofuran-3(2H)-one] | 13 µM
3 | COc1ccc(C=C2Oc3c(ccc(O)c3O)C2=O)cc1OC [Compound 3, 2-(3,4-dimethoxybenzylidene)-6,7-dihydroxy-1-benzofuran-3(2H)-one] | 11 µM
4 | O=C1C(=Cc2ccc(O)cc2O)Oc2c1ccc(O)c2O [Compound 4, 2-(2,4-dihydroxybenzylidene)-6,7-dihydroxy-1-benzofuran-3(2H)-one] | 1.5 µM
5 | O=C1C(=Cc2ccc(Cl)c(Cl)c2)Oc2c1ccc(O)c2O [Compound 5, 2-(3,4-dichlorobenzylidene)-6,7-dihydroxy-1-benzofuran-3(2H)-one] | 8 µM
6 | O=C1c2ccc(O)c(O)c2OC1Cc1ccc(O)c(O)c1 (stereo not drawn) [Compound 89, 2-(3,4-dihydroxybenzyl)-6,7-dihydroxy-1-benzofuran-3(2H)-one] | 7 µM
